Test results published in patent US5336783A, “Calpain inhibitor cystamidin A and its production” (The Kitasato Institute, priority 1992, dated 1994).
Converted amounts (≈) assume the structure as drawn.

Key:
calpain = calpain inhibition using casein as substrate (method by Saito et al.); type: biochemical
solubility in solvent = type: physicochemical; settings: water, methanol, acetone, chloroform and benzene
[1] = test system: various kinds of bacteria, yeast and fungi; assay: antimicrobial activity (paper disk method); type: cell-based; settings: 100 μg/disk
[2] = acute toxicity LD50 (ip) in mice; settings: mouse, in vivo
B-16 melanoma cells = assay: activity against B-16 melanoma cells in vitro; type: cell-based; settings: Mus musculus, B16

## NC(=O)CCc1cc[nH]c1 [cystamidin A]
calpain
  IC50 (50% inhibition) against calpain: 0.20 µg/mL (≈ 1.45 µM)
Solubility in solvent
  Solubility in solvent: soluble in water, methanol, acetone, chloroform and benzene
[1]
  antimicrobial activity: no antimicrobial activity
[2]
  LD50: > 200 mg/kg
B-16 melanoma cells
  IC50: > 25 µg/mL
